# Assay results from EP0466944A1, “4H-3,1-BENZOXAZIN-4-ONE COMPOUND AND ELASTASE INHIBITOR COMPOSITION CONTAINING THE SAME” (TEIJIN LIMITED, priority 1990, dated 1991).
# Tested on: human purulent sputum elastase
# Assay: Inhibitory effect on pulmonary hemorrhage in elastase-given hamsters (hemoglobin in bronchoalveolar lavage fluid)
# Format: in vivo, Syrian Golden Hamsters
# Conditions: 1 mg/kg through respiratory tract 30 minutes before elastase (1 mg/kg), lavage three hours after elastase
# Experimental: The efficacy of the compounds of the invention in vivo can be evaluated by the following procedures. In other words, a certain dose of a solution or dispersion of the compound of the invention is given through the respiratory tract, then human purulent sputum elastase is given through the respiratory tract after a certain time. The bronchoalveolar lavage were performed at a definite time after the elastase treatment and the hemoglobin is determined in the bronchoalveolar lavage fluids. The pulmonary hemorrhage is compared with that when a solution containing no compound of the present invention is given to measure the hemorrhage-inhibitory effect of the compounds of the present invention (Bonney et al., J. Cellular Biochemistry, 39, 47 - 53, (1989)).
# The compounds according to the invention listed in Table 3 were dissolved or dispersed in 0.01 M phosphate-buffered physiological saline solution (pH 7.5), given to Syrian Golden Hamsters (body weight: about 100 g) 1 mg/kg through respiratory tract, then 30 minutes later, human purulent sputum elastase was given (1 mg/kg) through respiratory tract. Three hours after elastase administration, the animals were sacrificed by bleeding to open their chests and the bronchoalveolar lavage was performed with physiological saline solution. The hemoglobin in the lavage fluid was determined by the cyanmethemoglobin method. […]
structure (smiles),measurement,value
Cc1cc(NC(=O)C(Cc2ccccc2)NC(=O)OCc2ccccc2)cc2nc(NC(C)C)oc(=O)c12 (stereo not shown) [Comparative example 1],inhibition rate of pulmonary hemorrhage,weak
